A short description of the experiment: Inhibition of NADH-ubiquinone oxidoreductase activity in bovine heart submitochondrial particles. More on the design: species or system Bos taurus.

Structures are written as SMILES.

Our source for the IC50 values is ChEMBL document CHEMBL1147856, “Synthesis, determination of the absolute configuration of tonkinelin, and inhibitory action with bovine heart mitochondrial complex I” (Bioorg Med Chem, 2007).

As usually defined, the IC50 is the concentration at which inhibition is half-maximal. High values mean lower potency, low ones higher potency.

On to `CCCCCCCCCCCCCCCC[C@H](O)[C@@H](O)CCCCCCCCCCCCCCC1=C[C@H](C)OC1=O`, for which the IC50 turned out to be 580 nM. `CCCCCCCCCC[C@@H](O)[C@@H]1CC[C@@H]([C@@H]2CC[C@@H]([C@H](O)CCCCCCCCCC(O)CC3=CC(C)OC3=O)O2)O1` (stereo not given in full) [BULLATACIN]: the IC50 came to 0.83 nM. `CCCCCCCCCCCC[C@H](O)[C@@H]1CC[C@H]([C@H](O)CCCCCCCCCCCCC2=C[C@H](C)OC2=O)O1` [CIS-SOLAMIN] registered an IC50 of 2.6 nM.

`CCCCCCCCCCCC[C@H](O)[C@@H](O)CC[C@@H](O)[C@H](O)CCCCCCCCCCCCC1=C[C@H](C)OC1=O` [DIHYDROXY-COHIBIN A] displayed a half-inhibitory concentration (IC50) of 20 nM. The compound `CCCCCCCCCCCCCCCC[C@@H](O)[C@H](O)CCCCCCCCCCCCCCC1=C[C@H](C)OC1=O` [TONKINELIN] displayed a half-inhibitory concentration (IC50) of 690 nM.
